One assay addresses T1, HDAC7 (Homo sapiens, UniProt Q8WUI4).
T1 sequence (Q8WUI4 1-952): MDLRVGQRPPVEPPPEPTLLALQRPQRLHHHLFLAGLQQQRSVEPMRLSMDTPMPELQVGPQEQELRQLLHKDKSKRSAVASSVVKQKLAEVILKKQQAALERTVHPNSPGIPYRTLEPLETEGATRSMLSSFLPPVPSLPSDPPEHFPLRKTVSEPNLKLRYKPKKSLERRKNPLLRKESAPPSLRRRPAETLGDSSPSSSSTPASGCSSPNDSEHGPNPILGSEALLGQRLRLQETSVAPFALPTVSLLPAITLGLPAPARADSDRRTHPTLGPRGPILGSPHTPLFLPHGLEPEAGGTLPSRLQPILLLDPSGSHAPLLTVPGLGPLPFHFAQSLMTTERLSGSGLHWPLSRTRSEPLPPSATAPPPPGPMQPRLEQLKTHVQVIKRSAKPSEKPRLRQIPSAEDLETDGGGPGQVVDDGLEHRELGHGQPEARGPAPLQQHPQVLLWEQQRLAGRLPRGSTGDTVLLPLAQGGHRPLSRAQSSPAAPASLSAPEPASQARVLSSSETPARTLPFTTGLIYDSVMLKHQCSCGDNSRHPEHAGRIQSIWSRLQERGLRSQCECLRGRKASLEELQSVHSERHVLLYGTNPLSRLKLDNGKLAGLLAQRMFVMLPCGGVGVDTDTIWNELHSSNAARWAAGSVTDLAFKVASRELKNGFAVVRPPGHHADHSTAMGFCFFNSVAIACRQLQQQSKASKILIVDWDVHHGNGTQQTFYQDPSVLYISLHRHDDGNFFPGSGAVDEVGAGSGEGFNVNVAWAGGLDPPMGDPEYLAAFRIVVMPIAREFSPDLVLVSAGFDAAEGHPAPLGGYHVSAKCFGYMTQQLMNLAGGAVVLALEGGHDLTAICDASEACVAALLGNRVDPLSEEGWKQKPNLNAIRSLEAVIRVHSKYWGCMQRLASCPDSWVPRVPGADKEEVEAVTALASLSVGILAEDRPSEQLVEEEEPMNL
Nature of the assay: HDAC biochemical activity measurement (fluorescent substrate deacetylation).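 Also: fluorogenic deacetylation assay using acetyl-lysine substrate at 20 µM, enzyme and compound incubated 30 min at 37 °C, then developer added, fluorescence read at 360/460 nm.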 Particulars: HDAC7; 37° C. 30 minutes.

Assay [1] concerns HT1080 (human fibrosarcoma cells). The assay can be described thus: MTT cancer cell growth inhibition. In kind it is cell-based. Particulars: Homo sapiens, HT-1080, 72 h, MTT, 72 hours incubation, read-out: GI50 HT1. Put shortly: (§1)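 72 h exposure, final drug 10^−5–10^−10 M, triplicate wells; 1500 cells/well plated the day before; medium DMEM or 1640 + 10% FBS; 37° C./5% CO2. MTT (5 mg/ml stock) 4 h, DMSO solubilisation, A570 → % viability → GI50.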

The test system of assay [2] is HCC827 (human non-small cell lung cancer cells). The assay can be described thus: MTT cancer cell growth inhibition. Particulars: Homo sapiens, HCC827, 72 h, MTT, 72 hours incubation, HCC827 cells; read-out: GI50 HCC827. In kind it is cell-based. In outline:
as §1

Assay [3] relates to H1975 (non-small cell lung adenocarcinoma). Nature of the assay: MTT cancer cell growth inhibition. In kind it is cell-based. Particulars: Homo sapiens, NCI-H1975, 72 h, MTT, 72 hours incubation, H1975 cells; read-out: GI50 H1975. Put shortly: as §1
Assay [4] deals with BGC-823 (human gastric cancer cells). The assay can be described thus: MTT cancer cell growth inhibition. In kind it is cell-based. Particulars: Homo sapiens, BGC-823, 72 h, MTT, 72 hours incubation, read-out: GI50 BG. Put shortly: as §1
In assay [5] the test system is MOLT-4 (human acute lymphoblastic leukemia cells). Nature of the assay: MTT cancer cell growth inhibition. Particulars: Homo sapiens, MOLT-4, 72 h, MTT, 72 hours incubation, read-out: GI50 Mol. In kind it is cell-based. In outline:
as §1

Assay [6] concerns A549 (human lung cancer cells). Nature of the assay: MTT cancer cell growth inhibition. In kind it is cell-based. Particulars: Homo sapiens, A549, 72 h, MTT, 72 hours incubation, read-out: GI50 A54. In outline: as §1
Assay [7] deals with Hela (human cervical cancer cells). The assay can be described thus: MTT cancer cell growth inhibition. In kind it is cell-based. Particulars: Homo sapiens, HeLa, 72 h, MTT, 72 hours incubation, read-out: GI50 Hela. Put shortly:
as §1

The test system of assay [8] is MCF-7 (human breast cancer cells). Nature of the assay: MTT cancer cell growth inhibition. In kind it is cell-based. Particulars: Homo sapiens, MCF7, 72 h, 72 hours incubation, read-out: GI50 MCF. In outline:
as §1

Assay [9] has as its system Bel-7402 (human hepatoma cells). Nature of the assay: MTT cancer cell growth inhibition. In kind it is cell-based. Particulars: Homo sapiens, Bel-7402, 72 h, MTT, 72 hours incubation, Bel-7402 cells; read-out: GI50 Bel-7402. In outline:
as §1

Assay [10] deals with DU145 (human prostate cancer cells). Nature of the assay: MTT cancer cell growth inhibition. In kind it is cell-based. Particulars: Homo sapiens, DU-145, 72 h, MTT, 72 hours incubation, read-out: GI50 Du1. In outline: as §1
Assay [11] has as its system PANC-1 (Pac-1, human pancreatic cancer cells). Nature of the assay: MTT cancer cell growth inhibition. In kind it is cell-based. Particulars: Homo sapiens, PANC-1, 72 h, MTT, 72 hours incubation, read-out: GI50 PAN. Put shortly: as §1
The subject of assay [12] is N-87 (human gastric cancer cells). Nature of the assay: MTT cancer cell growth inhibition. Particulars: Homo sapiens, 72 h, MTT, 72 hours incubation, N-87 cells; read-out: GI50 N-87. In kind it is cell-based. Put shortly:
as §1

The test system of assay [13] is KBM5-T315I (human chronic myelogenous leukemia). Nature of the assay: MTT cancer cell growth inhibition. In kind it is cell-based. Particulars: Homo sapiens, 72 h, MTT, 72 hours incubation, KBM5-T315I cells; read-out: GI50 KBM5-T315I. In outline: as §1
Assay [14] relates to U937 (human leukemia cells). Nature of the assay: MTT cancer cell growth inhibition. Particulars: Homo sapiens, U-937, 72 h, MTT, 72 hours incubation, read-out: GI50 U93. In kind it is cell-based. Put shortly:
as §1

The subject of assay [15] is KBM-5 (human chronic myelogenous leukemia). Nature of the assay: MTT cancer cell growth inhibition. In kind it is cell-based. Particulars: Homo sapiens, KBM5, 72 h, MTT, 72 hours incubation, KBM-5 cells; read-out: GI50 KBM-5. Put shortly:
as §1

Assay [16] deals with K562 (human leukemia cells). The assay can be described thus: MTT cancer cell growth inhibition. In kind it is cell-based. Particulars: Homo sapiens, K562, 72 h, MTT, 72 hours incubation, K562 cells; read-out: GI50 K562. Put shortly: as §1
The test system of assay [17] is SGC-7901 (human gastric cancer cells). The assay can be described thus: MTT cancer cell growth inhibition. In kind it is cell-based. Particulars: Homo sapiens, SGC-7901, 72 h, MTT, 72 hours incubation, SGC-7901 cells; read-out: GI50 SGC-7901. In outline:
as §1

Assay [18] has as its system lncap (prostate cancer cells). Nature of the assay: MTT cancer cell growth inhibition. In kind it is cell-based. Particulars: Homo sapiens, LNCaP, 72 h, MTT, 72 hours incubation, read-out: GI50 lnca. In outline:
as §1

The test system of assay [19] is MDA-MB-231 (breast cancer cells). The assay can be described thus: MTT cancer cell growth inhibition. In kind it is cell-based. Particulars: Homo sapiens, MDA-MB-231, 72 h, read-out: GI50 MDA-MB-231, MTT, 72 hours incubation, MDA-MB-231 cells. Put shortly: as §1
Assay [20] has as its system Huh-7 (human hepatoma cells). The assay can be described thus: MTT cancer cell growth inhibition. In kind it is cell-based. Particulars: Homo sapiens, Huh-7, 72 h, MTT, 72 hours incubation, Huh-7 cells; read-out: GI50 Huh-7. In outline: as §1

Read-outs that look alike come from different tables or passages of the source.

Regarding `C=C1NC(=O)c2nc(ccc2SC)CNC(=O)C[C@@H](/C=C/CCSC(C)=O)OC(=O)[C@H](C)NC1=O` [Compound 210], the “IC50 HDAC7” value on HDAC7 is reported as “no activity”. Further, the GI50 in assay [1] (HT1080 cells) turned out to be 20 nM; in assay [2] it was 56 nM; in assay [3] it was 25 nM; in assay [4] (BGC-823 cells) it was 10 nM; in [5] (MOLT-4 cells), 50 nM; in [6] (A549 cells), 50 nM. Also, the GI50 was found to be 30 nM in assay [7] (Hela cells); 30 nM in assay [8] (MCF-7 cells); 47 nM in assay [9]; 30 nM in assay [10] (DU145 cells); 50 nM in assay [11] (PANC-1 cells); 27 nM in [12]. In addition, the GI50 came to 49 nM in [13]; 20 nM in [14] (U937 cells); 52 nM in [15]; 86 nM in [16]; 105 nM in assay [17]; 50 nM in assay [18] (lncap cells). For the same molecule, the GI50 came to 72 nM in assay [19] and 22 nM in [20].
In the case of `C/C=C1\NC(=O)c2ccc(SC)c(n2)CNC(=O)C[C@@H](/C=C/CCSC(C)=O)OC(=O)[C@H](Cc2cccc3ccccc23)NC1=O` [Compound 200], the “IC50 HDAC7” value against HDAC7 was “no activity”. The GI50 was 40 nM in assay [1] (HT1080 cells); 45 nM in assay [2]; 59 nM in [3]; 80 nM in assay [4] (BGC-823 cells); 40 nM in assay [5] (MOLT-4 cells); 20 nM in assay [6] (A549 cells). Further, the GI50 is 30 nM in assay [7] (Hela cells); 30 nM in assay [8] (MCF-7 cells); 26 nM in [9]; 60 nM in [10] (DU145 cells); 70 nM in assay [11] (PANC-1 cells); 39 nM in [12]. Besides, the GI50 in [13] amounted to 34 nM; in assay [14] (U937 cells), 50 nM; in [15], 28 nM; in assay [16], 107 nM; in assay [17], 58 nM; in [18] (lncap cells), 80 nM. Also, the GI50 came to 46 nM in assay [19] and 26 nM in [20].
In the case of `C=C1NC(=O)c2cc(F)cc(n2)CNC(=O)C[C@@H](/C=C/CCS)OC(=O)[C@H](C)NC1=O` [Compound 141], at HDAC7, the “IC50 HDAC7” value is recorded as “no activity”. Besides, the GI50 in assay [1] is 80 nM; in [2] it was 37 nM; in [3], 38 nM; in [4], 30 nM; in [5] it was 80 nM; in assay [6], 50 nM. The GI50 in [7] was found to be 80 nM; in assay [8] it was 70 nM; in assay [9] it was 58 nM; in assay [10] it was 70 nM; in assay [11], 50 nM; in [12], 67 nM. The GI50 turned out to be 43 nM in assay [13]; 50 nM in assay [14]; 36 nM in assay [15]; 31 nM in assay [16]; 17 nM in assay [17]; 80 nM in [18]. Further, the GI50 in assay [19] stood at 26 nM; in assay [20] it was 28 nM.
`C/C=C1\NC(=O)c2ccc(F)c(n2)CNC(=O)C[C@@H](/C=C/CCS)OC(=O)[C@H](CC)NC1=O` [Compound 111]: on HDAC7, the “IC50 HDAC7” value was “no activity”. For the same molecule, the GI50 in assay [1] amounted to 80 nM; in assay [2], 57 nM; in assay [3], 27 nM; in [4], 30 nM; in assay [5], 20 nM; in [6], 50 nM. Besides, the GI50 in assay [7] worked out at 80 nM; in assay [8] it was 20 nM; in [9] it was 36 nM; in assay [10] it was 60 nM; in assay [11] it was 80 nM; in assay [12], 28 nM. Further, the GI50 in assay [13] was determined as 35 nM; in assay [14] it was 50 nM; in [15] it was 53 nM; in assay [16] it was 37 nM; in assay [17] it was 73 nM; in assay [18], 20 nM. Further, the GI50 in assay [19] and in [20] was 38 nM each time.
Regarding `C/C=C1\NC(=O)c2ccc(SC)c(n2)CCNC(=O)C[C@@H](/C=C/CCSC(C)=O)OC(=O)[C@H](C(C)C)NC1=O` [Compound 225], the “IC50 HDAC7” value at HDAC7 is reported as “no activity”. Also, the GI50 in assay [1] (HT1080 cells) was found to be 20 nM; in [2], 13 nM; in assay [3], 29 nM; in assay [4] (BGC-823 cells), 40 nM; in assay [5] (MOLT-4 cells), 60 nM; in assay [6] (A549 cells), 40 nM. The GI50 in assay [7] (Hela cells) was 70 nM; in assay [8] (MCF-7 cells), 30 nM; in assay [9] it was 72 nM; in assay [10] (DU145 cells), 20 nM; in assay [11] (PANC-1 cells) it was 30 nM; in assay [12], 38 nM. In addition, the GI50 in assay [13] is 38 nM; in [14] (U937 cells), 30 nM; in [15], 33 nM; in assay [16] it was 81 nM; in [17], 41 nM; in assay [18] (lncap cells), 20 nM. Also, the GI50 in assay [19] stood at 71 nM; in assay [20], 59 nM.

Values taken from patent US10065990B2, “Cyclic peptide compound, and preparation method, pharmaceutical composition and use thereof” (HANGZHOU GUANYU BIO-MEDICAL CO., LTD, priority 2013, dated 2018).
